Reference: ChEMBL document CHEMBL3885881, “DrugMatrix”

Species: Rattus norvegicus
Test: DrugMatrix - Regimen: Daily Repeat
Type: toxicity, organism-based, Sprague-Dawley
Set-up: regimen Daily Repeat, gender Male, age 6-8 weeks
Conditions: in vivo, iv, 34 mg/kg, dose level High, vehicle 100 % SALINE; for ABSOLUTE BASOPHIL / ABSOLUTE EOSINOPHIL / ABSOLUTE LYMPHOCYTE / ABSOLUTE MONOCYTE / ABSOLUTE SEGMENTED NEUTROPHIL / BASOPHIL / EOSINOPHIL / ERYTHROCYTE COUNT / HEMATOCRIT / HEMOGLOBIN / LEUKOCYTE COUNT / LYMPHOCYTE / MEAN CORPUSCULAR HEMOGLOBIN / MEAN CORPUSCULAR HEMOGLOBIN CONCENTRATION / MEAN CORPUSCULAR VOLUME / MONOCYTE / NEUTROPHIL / NUCLEATED RED BLOOD CELLS / PLATELET COUNT: tissue Blood; for ALANINE AMINOTRANSFERASE / ALBUMIN / ALKALINE PHOSPHATASE / ASPARTATE AMINOTRANSFERASE / BLOOD UREA NITROGEN / CARBON DIOXIDE / CHLORIDE / CHOLESTEROL / CREATINE PHOSPHOKINASE / CREATININE / GLUCOSE / LACTATE DEHYDROGENASE / LIPASE / PHOSPHORUS / POTASSIUM / SODIUM / TOTAL BILIRUBIN / TOTAL PROTEIN / URIC ACID: tissue Plasma

CN[C@@H]1[C@@H](O)[C@@H](O[C@@H]2[C@@H](O)[C@H](O[C@H]3OC(CN)=CC[C@H]3N)[C@@H](N)C[C@H]2N)OC[C@]1(C)O [SISOMICIN]
ABSOLUTE BASOPHIL (72 h, time 3 day): 0 CELLS/uL
ABSOLUTE EOSINOPHIL (72 h, time 3 day): 0 CELLS/uL
ABSOLUTE LYMPHOCYTE (72 h, time 3 day): 14608 CELLS/uL
ABSOLUTE MONOCYTE (72 h, time 3 day): 68 CELLS/uL
ABSOLUTE SEGMENTED NEUTROPHIL (72 h, time 3 day): 824 CELLS/uL
BASOPHIL (72 h, time 3 day): 0%
EOSINOPHIL (72 h, time 3 day): 0%
ERYTHROCYTE COUNT (72 h, time 3 day): 5.47 x10E6/uL
HEMATOCRIT (72 h, time 3 day): 35.6%
HEMOGLOBIN (72 h, time 3 day): 14.07 G/DL
LEUKOCYTE COUNT (72 h, time 3 day): 15.5 x10E3/uL
LYMPHOCYTE (72 h, time 3 day): 94.67%
MEAN CORPUSCULAR HEMOGLOBIN (72 h, time 3 day): 25.73 pg
MEAN CORPUSCULAR HEMOGLOBIN CONCENTRATION (72 h, time 3 day): 39.53 G/DL
MEAN CORPUSCULAR VOLUME (72 h, time 3 day): 65.13 fL
MONOCYTE (72 h, time 3 day): 0.33%
NEUTROPHIL (72 h, time 3 day): 5%
NUCLEATED RED BLOOD CELLS (72 h, time 3 day): 0 /100WBC
PLATELET COUNT (72 h, time 3 day): 1451.67 x10E3/uL
ALANINE AMINOTRANSFERASE (72 h, time 3 day): 52.33 u/L
ALBUMIN (72 h, time 3 day): 4.2 G/DL
ALKALINE PHOSPHATASE (72 h, time 3 day): 295 u/L
ASPARTATE AMINOTRANSFERASE (72 h, time 3 day): 81.67 u/L
BLOOD UREA NITROGEN (72 h, time 3 day): 17.67 mg/dL
CARBON DIOXIDE (72 h, time 3 day): 24 mmol/L
CHLORIDE (72 h, time 3 day): 102.33 MEQ/L
CHOLESTEROL (72 h, time 3 day): 66.33 mg/dL
CREATINE PHOSPHOKINASE (72 h, time 3 day): 204.33 u/L
CREATININE (72 h, time 3 day): 0.22 mg/dL
GLUCOSE (72 h, time 3 day): 150.67 mg/dL
LACTATE DEHYDROGENASE (72 h, time 3 day): 135.33 u/L
LIPASE (72 h, time 3 day): 10.33 u/L
PHOSPHORUS (72 h, time 3 day): 11.77 mg/dL
POTASSIUM (72 h, time 3 day): 6.49 MEQ/L
SODIUM (72 h, time 3 day): 144.2 MEQ/L
TOTAL BILIRUBIN (72 h, time 3 day): 0.17 mg/dL
TOTAL PROTEIN (72 h, time 3 day): 6 G/DL
URIC ACID (72 h, time 3 day): 1.27 mg/dL
ABSOLUTE BASOPHIL (120 h, time 5 day): 0 CELLS/uL
ABSOLUTE EOSINOPHIL (120 h, time 5 day): 136 CELLS/uL
ABSOLUTE LYMPHOCYTE (120 h, time 5 day): 16493.67 CELLS/uL
ABSOLUTE MONOCYTE (120 h, time 5 day): 81 CELLS/uL
ABSOLUTE SEGMENTED NEUTROPHIL (120 h, time 5 day): 1222.67 CELLS/uL
BASOPHIL (120 h, time 5 day): 0%
EOSINOPHIL (120 h, time 5 day): 1%
ERYTHROCYTE COUNT (120 h, time 5 day): 5.67 x10E6/uL
HEMATOCRIT (120 h, time 5 day): 37.07%
HEMOGLOBIN (120 h, time 5 day): 14.6 G/DL
LEUKOCYTE COUNT (120 h, time 5 day): 17.93 x10E3/uL
LYMPHOCYTE (120 h, time 5 day): 92%
MEAN CORPUSCULAR HEMOGLOBIN (120 h, time 5 day): 25.73 pg
MEAN CORPUSCULAR HEMOGLOBIN CONCENTRATION (120 h, time 5 day): 39.43 G/DL
MEAN CORPUSCULAR VOLUME (120 h, time 5 day): 65.3 fL
MONOCYTE (120 h, time 5 day): 0.33%
NEUTROPHIL (120 h, time 5 day): 6.67%
NUCLEATED RED BLOOD CELLS (120 h, time 5 day): 0 /100WBC
PLATELET COUNT (120 h, time 5 day): 1387.67 x10E3/uL
ALANINE AMINOTRANSFERASE (120 h, time 5 day): 44 u/L
ALBUMIN (120 h, time 5 day): 4.3 G/DL
ALKALINE PHOSPHATASE (120 h, time 5 day): 391.67 u/L
ASPARTATE AMINOTRANSFERASE (120 h, time 5 day): 71.67 u/L
BLOOD UREA NITROGEN (120 h, time 5 day): 15.67 mg/dL
CARBON DIOXIDE (120 h, time 5 day): 22.33 mmol/L
CHLORIDE (120 h, time 5 day): 103.67 MEQ/L
CHOLESTEROL (120 h, time 5 day): 57.33 mg/dL
CREATINE PHOSPHOKINASE (120 h, time 5 day): 158 u/L
CREATININE (120 h, time 5 day): 0.22 mg/dL
GLUCOSE (120 h, time 5 day): 155 mg/dL
LACTATE DEHYDROGENASE (120 h, time 5 day): 130.67 u/L
LIPASE (120 h, time 5 day): 10 u/L
PHOSPHORUS (120 h, time 5 day): 12.63 mg/dL
POTASSIUM (120 h, time 5 day): 6.57 MEQ/L
SODIUM (120 h, time 5 day): 145.93 MEQ/L
TOTAL BILIRUBIN (120 h, time 5 day): 0.27 mg/dL
TOTAL PROTEIN (120 h, time 5 day): 6.17 G/DL
URIC ACID (120 h, time 5 day): 1.63 mg/dL
